Patent US10160771B2, “Hepatitis C virus inhibitors and uses thereof in preparation of drugs” (priority 2014, dated 2018)

Legend:
[1] = test system: HCV genotype 1b (HCV-1b) replicon cells; assay: HCV genotype 1b replicon luciferase assay (EC50); assay type: cell-based, hepatitis C virus genotype 1b (Con1 clone); details: 3 days, luciferase (Bright-Glo)
Experimental: (§1) The EC50 and CC50 values of anti-HCV compounds were determined by HCV genotype 1a (HCV-1a) and 1B (HCV-1b) stable transfer replication (replicon) cells. The source of genotype 1a replicon is H77 clones containing K1691R, K2040R and S2204I adaptive mutations. The source of genotype 1b replicon is Con1 clones containing E1202G, T1280I and K1846T adaptive mutations.
(§2) HCV 1a (HCV-1a) and 1b (HCV-1b) gene subtype replicon system contains the related HCV gene subtype non structural protein gene, G418 resistance gene NEO and luciferase gene, which results in that HCV related protein and luciferase can be stably expressed in cells. By detecting the level of expression of luciferase gene, the level of HCV replication can be determined. Therefore, the system is used as a model for screening the activity of anti-HCV compound in vitro.
(§3) HCV Replicon Cell Lines: HCV-1a and HCV-1b Cells
(§4) The compound powder was dissolved in 100% DMSO. Then the compound was diluted 5 times with 6 points, and added into the cell plate with Echo liquid handler. Ensure the final concentration of DMSO was 0.5%. Each compound was tested in double holes. Maximum initial concentration was 100, 10 or 1 nM, 5 times dilution, 6 points.
(§5) b) Cell Culture (HCV-1a or HCV-1b Replicon Cell):
(§6) 1) absorbing the culture supernatant of the cell culture and washing the cells with 10 mL PBS.
(§7) 2) adding preheated pancreatin to the washed cell culture flasks, rotating culture bottle to make the bottom of the culture bottle uniformly covered by pancreatin, then placed into 37° C., 5% CO2 incubator to digest.
(§8) 3) suspending cells in each T150 culture flask with 10-15 mL culture medium, absorbing 0.1 mL liquid and diluting 2 times by trypan blue solution as counted.
(§9) 4) diluting cells to 8×10^4/mL with the culture medium, adding the diluted cells into the compound-containing 96-well plate (Greiner, Cat.#655090) (100 μL/well, 8000 cells/well) with automatic liquid separator (Thermo Scientific). Then place into a 37° C., 5% CO2 incubator for 3 days. Cell control well: no compound, only containing 0.5% DMSO.
(§10) 6) then adding luciferase luminescence substrate Bright-Glo, after incubation for 5 minutes, detecting the luciferase activity by chemical luminescence detection system Envison (wavelength>700 nm); analyzing the anti-HCV inhibitory activity of the compounds according to luciferase data, which was used to calculate EC50 values.
(§11) The EC50 or CC50 values were obtained by nonlinear fitting analysis on inhibition percentage (inh %) data with GraphPad Prism software.

[2] = Cell Titer-fluor cell activity assay in HCV-1b replicon cells (CC50); assay type: cell-based
Experimental: as §1, §3, §4, §5, §6, §7, §8, §9
5) adding chemiluminescent substrate Cell Titer-fluor to the cell well, after incubation for 30 minutes, detecting the signal by chemiluminescence detection system Envison (Ex at 405 nm and read at 515 nm). The effect of the compounds on the activity of HCV replicon cells was analyzed according to the luminescence data, which was used to calculate the CC50 values.
as §11

[3] = test system: HCV genotype 1a (HCV-1a) replicon cells; assay: HCV genotype 1a replicon luciferase assay (EC50); assay type: cell-based, hepatitis C virus genotype 1a (H77 clone); details: 3 days, luciferase (Bright-Glo)
Experimental: as §1, §2, §3, §4, §5, §6, §7, §8, §9, §10, §11

SMILES | EC50 ([1]; Hepatitis C virus, 72 h) [nM] | CC50 at 3 days [2] [nM] | EC50 ([3]; Hepatitis C virus, 72 h) [nM] | EC50 [3] [nM] | EC50 [1] [nM]
COC(=O)N[C@H](C(=O)N1CCC[C@H]1c1ncc(-c2ccc(-c3ccc(-c4cnc(C5CCCC5C(=O)N(NC(=O)OC)C(C)C)[nH]4)cc3)cc2)[nH]1)C(C)C (some centres unmarked) [AA_008] | 1 to 10 | > 100 | – | – | –
COC(=O)NC(C(=O)N1CCCC1c1[nH]c(-c2ccc(-c3ccc(-c4cnc(C5CCCC[C@@H]5C(=O)N(NC(=O)OC)C(C)C)[nH]4)cc3)cc2)c2c1CCC2)C1CCOCC1 (some centres unmarked) [AL_003] | 10 to 100 | > 10 | – | – | –
COC(=O)NC(C(=O)N1CCCC1c1ncc(-c2ccc3cc(-c4cnc(C5CCCC[C@H]5C(=O)N(NC(=O)OC)C(C)C)[nH]4)ccc3c2)[nH]1)C1CCOC1 (some centres unmarked) [AA_078] | 10 to 100 | > 10 | – | – | –
COC(=O)N[C@H](C(=O)N[C@H]1C2CCC(C2)C1c1ncc(-c2ccc(-c3ccc(-c4cnc([C@@H]5CCCN5C(=O)[C@@H](NC(=O)OC)C(C)C)[nH]4)cc3)cc2)[nH]1)C(C)C (some centres unmarked) [AA_286] | 0.001 to 0.1 | – | 10 to 100 | – | –
COC(=O)N[C@H](C(=O)N1CCC[C@H]1c1ncc(-c2ccc(-c3ccc(-c4cnc([C@@H]5[C@H]6CC[C@H](C6)[C@H]5C(=O)NCc5ncc(C)[nH]5)[nH]4)cc3)cc2)[nH]1)C(C)C [AA_291_ENDOA2] | 0.001 to 0.1 | – | 1 to 10 | – | –
COC(=O)N[C@H](C(=O)N1CCC[C@H]1c1ncc(-c2ccc(-c3ccc(-c4[nH]c([C@@H]5CCCN5C(=O)[C@@H](NC(=O)OC)C(C)C)c5c4OCC5)cc3)cc2)[nH]1)C(C)C [AG_114_A] | – | – | – | 10 to 100 | 0.101 to 1
COC(=O)N[C@H](C(=O)N1CCC[C@H]1c1ncc(-c2ccc(-c3ccc(-c4cnc([C@@H]5[C@H]6CC[C@H](C6)[C@H]5C(=O)NC(C)c5cncnc5)[nH]4)cc3)cc2)[nH]1)C(C)C (some centres unmarked) [AA_292_ENDOA2_M] | 0.101 to 1 | – | 1 to 10 | – | –
COC(=O)CNC(=O)[C@H](NC(=O)[C@@H]1[C@@H]2CC[C@@H](C2)[C@H]1c1ncc(-c2ccc(-c3ccc(-c4cnc([C@@H]5CCCN5C(=O)[C@@H](NC(=O)OC)C(C)C)[nH]4)cc3)cc2)[nH]1)C(C)C [AA_290_ENDOA2] | 0.101 to 1 | – | 10 to 100 | – | –
COC(=O)N[C@H](C(=O)N1CCC[C@H]1c1ncc(-c2ccc(-c3ccc(-c4cnc([C@@H]5CCCC[C@H]5C(=O)N(NC(=O)OC)C(C)C)[nH]4)cc3)cc2)[nH]1)C(C)C [AA_091_A] | 1 to 10 | > 10 | – | – | –
COC(=O)N[C@H](C(=O)N1CCC[C@H]1c1ncc(-c2ccc(-c3ccc(-c4cnc([C@@H]5[C@H]6CC[C@H](C6)[C@H]5C(=O)N[C@@H](C(=O)c5ccccc5)C(C)C)[nH]4)cc3)cc2)[nH]1)C(C)C [AA_293_ENDOA2] | 0.001 to 0.1 | – | 1 to 10 | – | –
COC(=O)N[C@H](C(=O)N1[C@H](c2ncc(-c3ccc(-c4ccc5cc(-c6cnc(C7CCCC[C@H]7C(=O)N(NC(=O)OC)C(C)C)[nH]6)ccc5c4)cc3)[nH]2)COC1(C)C)C(C)C (some centres unmarked) [AA_072] | 10 to 100 | > 10 | – | – | –
COC(=O)NN(C(=O)C1=C(c2ncc(-c3ccc(-c4ccc(-c5cnc(C6=C(C(=O)N(NC(=O)OC)C(C)C)CCC6)[nH]5)cc4)cc3)[nH]2)CCC1)C(C)C [AA_033] | 10 to 100 | – | 10 to 100 | – | –
COC(=O)N[C@H](C(=O)N1CCC[C@H]1c1ncc(-c2ccc(-c3ccc(-c4cnc([C@@H]5[C@H]6CC[C@H](C6)[C@H]5C(=O)NCc5cncc(F)c5)[nH]4)cc3)cc2)[nH]1)C(C)C [AA_287_ENDOA2] | 0.001 to 0.1 | – | 0.101 to 1 | – | –
COC(=O)N[C@H](C(=O)N1CCC[C@H]1c1cc(Cl)c(-c2ccc(-c3ccc(-c4cnc([C@@H]5CCCN5C(=O)[C@@H](NC(=O)OC)[C@@H](C)OC)[nH]4)cc3)cc2)[nH]1)[C@@H](C)OC [AG_095] | 0.001 to 0.1 | – | 0.101 to 1 | – | –
COC(=O)N[C@H](C(=O)N1CCC[C@H]1c1ncc(-c2ccc(-c3ccc(-c4cnc([C@@H]5[C@H]6CC[C@H](C6)[C@H]5C(=O)NCc5ccc(F)nc5)[nH]4)cc3)cc2)[nH]1)C(C)C [AA_214_ENDOA2] | 0.001 to 0.1 | – | 1 to 10 | – | –
COC(=O)N[C@H](C(=O)N1CCC[C@H]1c1ncc(-c2ccc(-c3ccc(-c4cnc([C@@H]5[C@H]6CC[C@H](C6)[C@H]5C(=O)NN5CC[C@@H](C)C5=O)[nH]4)cc3)cc2)[nH]1)C(C)C [AA_295_ENDOA2_A] | 0.101 to 1 | – | 10 to 100 | – | –
COC(=O)N[C@H](C(=O)N1CCC[C@H]1c1ccc(-c2ccc(-c3ccc(-c4cnc([C@@H]5CCCN5C(=O)C5(NC(=O)OC)CC5)[nH]4)cc3)cc2)[nH]1)C(C)C [AG_097] | – | – | – | 10 to 100 | 0.001 to 0.1
COC(=O)N[C@H](C(=O)N1CCC[C@H]1c1ncc(-c2ccc(-c3ccc(-c4cnc([C@@H]5C6CCC(C6)[C@H]5C(=O)NCC(=O)NCC(F)F)[nH]4)cc3)cc2)[nH]1)C(C)C (some centres unmarked) [AA_277] | 0.001 to 0.1 | – | 0.101 to 1 | – | –
COC(=O)N[C@H](C(=O)N1CCC[C@H]1c1ccc(-c2ccc(-c3ccc(-c4cnc([C@@H]5CCCN5C(=O)[C@@H](NC(=O)OC)[C@@H](C)O)[nH]4)cc3)cc2)[nH]1)C(C)C [AG_099] | 0.101 to 1 | – | 1 to 10 | – | –
CCOC(=O)[C@@H](NC(=O)[C@@H]1[C@@H]2CC[C@@H](C2)[C@H]1c1ncc(-c2ccc(-c3ccc(-c4cnc([C@@H]5CCCN5C(=O)[C@@H](NC(=O)OC)C(C)C)[nH]4)cc3)cc2)[nH]1)C(C)C [AA_297_ENDOA2] | 0.101 to 1 | – | 10 to 100 | – | –
COC(=O)NN(C(=O)[C@@H]1C2C=CC(C2)C1c1ncc(-c2ccc(-c3ccc(-c4cnc(C5C6C=CC(C6)[C@@H]5C(=O)N(NC(=O)OC)C(C)C)[nH]4)cc3)cc2)[nH]1)C(C)C (some centres unmarked) [AA_034] | 10 to 100 | – | 10 to 100 | – | –
COC(=O)N[C@H](C(=O)N1CCC[C@H]1c1ncc(-c2ccc(-c3ccc(-c4cnc([C@@H]5[C@H]6CC[C@H](C6)[C@H]5C(=O)NNC(C)=O)[nH]4)cc3)cc2)[nH]1)C(C)C [AA_289_ENDOA2] | 0.101 to 1 | – | 10 to 100 | – | –
COC(=O)N[C@H](C(=O)N1CCC[C@H]1c1ncc(-c2ccc(-c3ccc(-c4cnc([C@@H]5[C@H]6CC[C@H](C6)[C@H]5C(=O)N[C@H](C(=O)OC)C(C)C)[nH]4)cc3)cc2)[nH]1)C(C)C [AA_282_ENDOA2] | 0.001 to 0.1 | – | 1 to 10 | – | –
COC(=O)N[C@H](C(=O)N1CCC[C@H]1c1ncc(-c2ccc(-c3ccc(-c4cnc([C@@H]5[C@H]6CC[C@H](C6)[C@H]5C(=O)N[C@@H](C)c5nccs5)[nH]4)cc3)cc2)[nH]1)C(C)C [AA_279_ENDOA2_A] | 0.001 to 0.1 | – | 0.101 to 1 | – | –
COC(=O)N[C@H](C(=O)N1CCC[C@H]1c1ncc(-c2ccc(-c3ccc(-c4ccc(C5CCCC5C(=O)NCc5cccnc5)[nH]4)cc3)cc2)[nH]1)[C@@H](C)OC (some centres unmarked) [AG_096] | 0.001 to 0.1 | – | 10 to 100 | – | –
COC(=O)N[C@H](C(=O)N1CCC[C@H]1c1ncc(-c2ccc(-c3ccc(-c4cnc([C@@H]5[C@H]6CC[C@H](C6)[C@H]5C(=O)N[C@H](C)c5cccnc5F)[nH]4)cc3)cc2)[nH]1)C(C)C [AA_283_ENDOA2_A] | 0.001 to 0.1 | – | 1 to 10 | – | –
COC(=O)N[C@H](C(=O)N1CCC[C@H]1c1ncc(-c2ccc(-c3ccc(-c4cnc([C@@H]5[C@H]6CC[C@H](C6)[C@H]5C(=O)NN5CCCC5=O)[nH]4)cc3)cc2)[nH]1)C(C)C [AA_294_ENDOA2] | 0.001 to 0.1 | – | 10 to 100 | – | –
COC(=O)N[C@H](C(=O)N1CCC[C@H]1c1ncc(-c2ccc(-c3ccc(-c4cnc([C@@H]5C6CCC(C6)[C@H]5C(=O)NC5(C(=O)NCC(F)F)CCCCC5)[nH]4)cc3)cc2)[nH]1)C(C)C (some centres unmarked) [AA_275] | 0.001 to 0.1 | – | 10 to 100 | – | –
